These results are taken from patent US20130066055A1, “NEW BINDER-DRUG CONJUGATES (ADCS) AND USE THEREOF” (Bayer Intellectual Property GmbH, priority 2011, published 2013).

For orientation: Papp B→A means the apparent permeability from the basolateral to the apical side of a cell layer.

The subject of one data set is Caco-2 cells. In words: Caco-2 flux assay for cell permeability. As to conditions: basal to apical, 2 hours. The data set is classed as in vitro ADME. As for the experimental part: (§1) The cell permeability of a substance can be investigated by means of in vitro testing in a flux assay using Caco-2 cells [M. D. Troutman and D. R. Thakker, Pharm. Res. 20 (8), 1210-1224 (2003)]. For this purpose, the cells were cultured for 15-16 days on 24-well filter plates. For the determination of permeation, the respective working example was applied in a HEPES buffer to the cells either apically (A) or basally (B) and incubated for 2 hours. After 0 hours and after 2 hours, samples were taken from the cis and trans compartments. The samples were separated by HPLC (Agilent 1200, Böblingen, Germany) using reverse phase columns. The HPLC system was coupled via a Turbo Ion Spray Interface to a Triple Quadropol mass spectrometer API 4000 (Applied Biosystems Applera, Darmstadt, Germany). The permeability was evaluated on the basis of a Papp value, which was calculated using the formula published by Schwab et al. [D. Schwab et al., J. Med. Chem. 46, 1716-1725 (2003)].
A general note: Caco-2 monolayers are a common model of the intestinal barrier.

The test system of the next data set is tubulin. In words: Fluorescence-based microtubule (tubulin) polymerization assay. It counts as biochemical. The method, then:
Tubulin polymerization was investigated using the “Fluorescence-based Microtubule Polymerisation Assay Kit” from Cytoskeleton (Denver, Colo., USA; order number: BK011). With this assay, GTP is added to unpolymerized tubulin, allowing polymerization to take place spontaneously. The assay is based on the binding of the fluorophore 4′,6-di-amidino-2-phenylindole (DAPI) to tubulin. Free and bound DAPI can be differentiated on the basis of different emission spectra.
[…] In addition to the buffer control, paclitaxel, with a polymerization-increasing effect, and vinblastin, with a polymerization inhibiting effect, were run additionally as assay controls. Measurement was carried out using 96-well plates with a half base area. The kinetics of the tubulin polymerization were monitored in a Fluorimeter at 37° C. for 1 hour. The excitation wavelength was 355 nm, and emission was monitored at 460 nm. For the region of linear increase within the first 10 minutes, a calculation was made of the change in fluorescence per minute (ΔF/min), which represents the polymerization rate of the microtubuli. The potency of the test substances was quantified on the basis of their respective reduction of the polymerization rate.

Data set [1] is described as follows: Caco-2 flux assay for cell permeability. The following applies: human, Caco-2 cells, basal to apical. The data set is classed as in vitro ADME. As for the experimental part: as §1
In data set [2] the target is T1, P-glycoprotein (P-gp, ABCB1) (Homo sapiens, UniProt P08183).
T1 construct: expressed in transfected cells; host or cells: LLC-PK1 (pig kidney) cells transfected with human MDR1 (L-MDR1 cells)
T1 sequence (P08183 whole entry): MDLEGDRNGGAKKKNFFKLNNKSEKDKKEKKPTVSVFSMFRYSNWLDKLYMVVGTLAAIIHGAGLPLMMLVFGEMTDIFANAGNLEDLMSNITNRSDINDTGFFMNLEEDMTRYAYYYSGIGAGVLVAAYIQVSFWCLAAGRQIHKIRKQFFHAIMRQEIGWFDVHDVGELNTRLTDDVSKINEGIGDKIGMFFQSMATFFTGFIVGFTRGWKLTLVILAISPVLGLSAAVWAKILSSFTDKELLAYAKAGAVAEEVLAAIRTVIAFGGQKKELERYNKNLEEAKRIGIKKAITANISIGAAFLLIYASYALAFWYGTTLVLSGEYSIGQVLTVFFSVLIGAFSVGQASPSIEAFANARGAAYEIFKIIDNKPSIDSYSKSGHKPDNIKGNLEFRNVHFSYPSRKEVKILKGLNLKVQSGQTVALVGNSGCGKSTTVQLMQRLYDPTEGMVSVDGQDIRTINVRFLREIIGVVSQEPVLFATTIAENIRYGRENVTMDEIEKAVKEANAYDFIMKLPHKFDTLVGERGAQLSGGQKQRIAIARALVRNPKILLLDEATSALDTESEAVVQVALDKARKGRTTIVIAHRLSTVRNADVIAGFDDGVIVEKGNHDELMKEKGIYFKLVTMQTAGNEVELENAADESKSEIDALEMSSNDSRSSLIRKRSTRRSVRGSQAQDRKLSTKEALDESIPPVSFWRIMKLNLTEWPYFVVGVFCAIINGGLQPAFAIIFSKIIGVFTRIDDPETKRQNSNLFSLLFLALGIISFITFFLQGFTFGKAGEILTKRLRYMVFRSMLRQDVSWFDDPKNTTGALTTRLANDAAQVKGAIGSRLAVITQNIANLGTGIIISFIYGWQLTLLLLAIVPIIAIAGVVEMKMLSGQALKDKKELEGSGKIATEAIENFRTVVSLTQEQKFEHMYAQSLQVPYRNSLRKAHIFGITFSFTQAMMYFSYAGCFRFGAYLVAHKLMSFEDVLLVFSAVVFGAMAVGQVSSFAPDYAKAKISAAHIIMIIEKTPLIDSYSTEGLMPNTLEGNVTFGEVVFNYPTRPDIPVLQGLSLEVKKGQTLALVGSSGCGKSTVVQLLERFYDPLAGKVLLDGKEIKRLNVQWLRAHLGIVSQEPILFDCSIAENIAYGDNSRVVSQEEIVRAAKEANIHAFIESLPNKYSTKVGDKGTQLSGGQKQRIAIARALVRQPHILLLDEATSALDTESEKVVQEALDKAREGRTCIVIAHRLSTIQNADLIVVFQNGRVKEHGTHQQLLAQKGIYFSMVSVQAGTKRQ
In words: Flux assay in P-gp overexpressing L-MDR1 cells. The data set is classed as in vitro ADME. The following applies: LLC-PK1, basal to apical. As for the experimental part:
The substrate properties of a substance for P-gp (ABCB1) were determined by means of a flux assay using LLC-PK1 cells which overexpress P-gp (L-MDR1 cells) [A. H. Schinkel et al., J. Clin. Invest. 96, 1698-1705 (1995)]. For this purpose, the LLC-PK1 cells or L-MDR1 cells were cultured on 96-well filter plates for 3-4 days. For determination of the permeation, the respective test substance, alone or in the presence of an inhibitor (such as Ivermectin or Verapamil, for example), was applied in a HEPES buffer to the cells either apically (A) or basally (B) and incubated for 2 hours. After 0 hours and after 2 hours, samples were taken from the cis and trans compartments. The samples were separated by HPLC using reverse phase columns. The HPLC system was coupled via a Turbo Ion Spray Interface to a Triple Quadropol mass spectrometer API 3000 (Applied Biosystems Applera, Darmstadt, Germany). The permeability was evaluated on the basis of a Papp value which was calculated using the formula published by Schwab et al. [D. Schwab et al., J. Med. Chem. 46, 1716-1725 (2003)].

Where a name gives a salt, the structure may show the parent alone. Square brackets hold non-standard residues; d marks the D form. Peptide text beside a SMILES is read from it. * marks the point of attachment. X2 = CC(C)[C@@H](C(=O)*)N(C)CCCCCCN1C(=O)CC(SC[C@H](N)C(=O)O)C1=O; X1 = CC(C)[C@@H](C(=O)*)N(C)CCCCCC(=O)NCCCC[C@H](N)C(=O)O; Dolaproine = CO[C@@H]([C@@H]1CCCN1)[C@@H](C)C(=O)O; Dil = CC[C@H](C)[C@H](NC)[C@@H](CC(=O)O)OC; X5 = C[C@@H](N*)[C@@H](O)c1ccccc1; Oxazinan2yl(1,2) = C1CCN(*)OC1; NMeV = CN[C@H](C(=O)O)C(C)C

Turning to `CC[C@H](C)[C@@H]([C@@H](CC(=O)N1CCC[C@H]1[C@H](OC)[C@@H](C)C(=O)N[C@@H](Cc1ccccc1)C(=O)O)OC)N(C)C(=O)[C@@H](NC(=O)[C@@H](NC)C(C)C)C(C)C` [MMAF, Monomethylauristatin F, reference compound] (H-[NMeV]V[Dil][Dolaproine]F-OH), the “Papp (B-A)” value with Caco-2 cells came to 7.3 ×10⁻⁶ cm/s. In the data set with tubulin, the “inhibition of tubulin polymerization” value was “inhibit tubulin polymerization as a function of their concentration”. Moreover, the “Tubulin polymerization in the presence of toxophore in [%]. Tubulin polymerization rate at 1 μM MMAF set at 100%” value (“Tubulin polymerization in the presence … at 100%” below) is reported as 100% in the data set on tubulin (toxophore 1 μM) and 34% in the data set on tubulin (toxophore 10 μM).

Take `CC[C@H](C)[C@@H]([C@@H](CC(=O)N1CCC[C@H]1[C@H](OC)[C@@H](C)C(=O)N[C@H](C)[C@@H](O)c1ccccc1)OC)N(C)C(=O)[C@@H](NC(=O)[C@@H](NC)C(C)C)C(C)C` [MMAE, monomethylauristatin E, reference compound] (H-[NMeV]V[Dil][Dolaproine]-X5): in the data set with Caco-2 cells, the “Papp (B-A)” value was 7.3 ×10⁻⁶ cm/s.

As to `CC[C@H](C)[C@@H]([C@@H](CC(=O)N1CCC[C@H]1[C@H](OC)[C@@H](C)C(=O)N[C@@H](Cc1c[nH]c2ccccc12)C(=O)N1CCCCO1)OC)N(C)C(=O)[C@@H](NC(=O)[C@H](C(C)C)N(C)CCCCCC(=O)NCCCC[C@H](N)C(=O)O)C(C)C` [Example 115, N-(6-{[(5S)-5-Amino-5-carboxypentyl]amino}-6-oxohexyl)-N-methyl-L-valyl-N-[(3R,4S,5S)-1-{(2S)-2-[(1R,2R)-3-{[(2S)-3-(1H-indol-3-yl)-1-(1,2-oxazinan-2-yl)-1-oxopropan-2-yl]amino}-1-methoxy-2-methyl-3-oxopropyl]pyrrolidin-1-yl}-3-methoxy-5-methyl-1-oxoheptan-4-yl]-N-methyl-L-valinamide trifluoroacetate] (X1-V[Dil][Dolaproine]W-{Oxazinan2yl(1,2)}), the Papp B→A at 2 h in data set [1] turned out to be 0.2 ×10⁻⁶ cm/s; in data set [2] it was 0.6 ×10⁻⁶ cm/s. In addition, the “Tubulin polymerization in the presence … at 100%” value in the data set with tubulin (toxophore 1 μM) stood at 45%; in the data set with tubulin (toxophore 10 μM), 1%.

As for `CC[C@H](C)[C@@H]([C@@H](CC(=O)N1CCC[C@H]1[C@H](OC)[C@@H](C)C(=O)N[C@@H](Cc1c[nH]c2ccccc12)C(N)=O)OC)N(C)C(=O)[C@@H](NC(=O)[C@H](C(C)C)N(C)CCCCCCN1C(=O)CC(SC[C@H](N)C(=O)O)C1=O)C(C)C` (stereo partly drawn) [Example 74, N-[6-(3-{[(2R)-2-Amino-2-carboxyethyl]sulphanyl}-2,5-dioxopyrrolidin-1-yl)hexyl]-N-methyl-L-valyl-N-[(3R,4S,5S)-1-{(2S)-2-[(1R,2R)-3-{[(2S)-1-amino-3-(1H-indol-3-yl)-1-oxopropan-2-yl]amino}-1-methoxy-2-methyl-3-oxopropyl]pyrrolidin-1-yl}-3-methoxy-5-methyl-1-oxoheptan-4-yl]-N-methyl-L-valinamide] (X2-V[Dil][Dolaproine]W-NH2), the figures for the Papp B→A at 2 h in data set [1] and in data set [2] were 0.5 ×10⁻⁶ cm/s and 0.36 ×10⁻⁶ cm/s, respectively. Further, the results for the “Tubulin polymerization in the presence … at 100%” value in the data set with tubulin (toxophore 1 μM) and with tubulin (toxophore 10 μM) were 117% and 64%, respectively.

As to `CC[C@H](C)[C@@H]([C@@H](CC(=O)N1CCC[C@H]1[C@H](OC)[C@@H](C)C(=O)N[C@@]1(C(=O)N2CCCCO2)C[C@@H]1c1ccccc1)OC)N(C)C(=O)[C@@H](NC(=O)[C@H](C(C)C)N(C)CCCC(=O)NNC(=O)CCCCCN1C(=O)CC(SC[C@H](N)C(=O)O)C1=O)C(C)C` (stereo partly drawn) [Example 73, N-(4-{2-[6-(3-{[(2R)-2-Amino-2-carboxyethyl]sulphanyl}-2,5-dioxopyrrolidin-1-yl)hexanoyl]hydrazino}-4-oxobutyl)-N-methyl-L-valyl-N-[(3R,4S,5S)-3-methoxy-1-{(2S)-2-[(1R,2R)-1-methoxy-2-methyl-3-{[(1S,2R)-1-(1,2-oxazinan-2-ylcarbonyl)-2-phenylcyclopropyl]amino}-3-oxopropyl]pyrrolidin-1-yl}-5-methyl-1-oxoheptan-4-yl]-N-methyl-L-valinamide], the Papp B→A at 2 h in data set [1] was 0.25 ×10⁻⁶ cm/s; in data set [2], 0.21 ×10⁻⁶ cm/s. For the same compound, the “Tubulin polymerization in the presence … at 100%” value in the data set with tubulin (toxophore 1 μM) amounted to 120%.

As to `CC[C@H](C)[C@@H]([C@@H](CC(=O)N1CCC[C@H]1[C@H](OC)[C@@H](C)C(=O)N[C@@H](Cc1c[nH]c2ccccc12)C(N)=O)OC)N(C)C(=O)[C@@H](NC(=O)[C@H](C(C)C)N(C)CCCC(=O)NNC(=O)CCCCCN1C(=O)CC(SC[C@H](N)C(=O)O)C1=O)C(C)C` (stereo partly drawn) [Example 71, N-(4-{2-[6-(3-{[(2R)-2-Amino-2-carboxyethyl]sulphanyl}-2,5-dioxopyrrolidin-1-yl)hexanoyl]hydrazino}-4-oxobutyl)-N-methyl-L-valyl-N-[(3R,4S,5S)-1-{(2S)-2-[(1R,2R)-3-{[(2S)-1-amino-3-(1H-indol-3-yl)-1-oxopropan-2-yl]amino}-1-methoxy-2-methyl-3-oxopropyl]pyrrolidin-1-yl}-3-methoxy-5-methyl-1-oxoheptan-4-yl]-N-methyl-L-valinamide], the Papp B→A at 2 h in data set [1] was 0.2 ×10⁻⁶ cm/s; in data set [2], 0.3 ×10⁻⁶ cm/s. The “Tubulin polymerization in the presence … at 100%” value in the data set on tubulin (toxophore 1 μM) came to 88%; in the data set with tubulin (toxophore 10 μM) it was 25%.

Consider `CC[C@H](C)[C@@H]([C@@H](CC(=O)N1CCC[C@H]1[C@H](OC)[C@@H](C)C(=O)N[C@@H](Cc1c[nH]c2ccccc12)C(=O)NCc1ccccc1)OC)N(C)C(=O)[C@@H](NC(=O)[C@H](C(C)C)N(C)CCCC(=O)NNC(=O)CCCCCN1C(=O)CC(SC[C@H](N)C(=O)O)C1=O)C(C)C` (stereo partly drawn) [Example 77, N-(4-{2-[6-(3-{[(2R)-2-Amino-2-carboxyethyl]sulphanyl}-2,5-dioxopyrrolidin-1-yl)hexanoyl]hydrazino}-4-oxobutyl)-N-methyl-L-valyl-N-[(3R,4S,5S)-1-{(2S)-2-[(1R,2R)-3-{[(2S)-1-(benzylamino)-3-(1H-indol-3-yl)-1-oxopropan-2-yl]amino}-1-methoxy-2-methyl-3-oxopropyl]pyrrolidin-1-yl}-3-methoxy-5-methyl-1-oxoheptan-4-yl]-N-methyl-L-valinamide], for which the Papp B→A at 2 h is 0.7 ×10⁻⁶ cm/s in data set [1] and 0.2 ×10⁻⁶ cm/s in data set [2]. Besides, the “Tubulin polymerization in the presence … at 100%” value in the data set on tubulin (toxophore 1 μM) was determined as 111%; in the data set with tubulin (toxophore 10 μM), 45%.
